Test results taken from US20100273801A1, “BETULIN DERIVED COMPOUNDS USEFUL AS ANTIBACTERIAL AGENTS” (Valition teknillinen tutikimuskeskus, priority 2006, published 2010).
Structures can show the parent of a compound that is named as a salt. Where two headings read alike, the source gives them in different places.

Columns and labels:
S. epidermidis = test: turbidometric bacterial growth inhibition on a 96 well plate; settings: for percent growth inhibition S. epidermidis 4 h / percent growth inhibition S. epidermidis 24 h: compound 1 mg/ml; for inhibition at 0.1 µg/mL / inhibition at 1 µg/mL / inhibition at 1000 µg/mL: Staphylococcus epidermidis
Method: (§1) The antimicrobial efficiency of betulin derived compounds against Staphylococcus aureus, Staphylococcus epidemidis, Micrococcus luteus and Bacillus subtilis was studied using a turbidometric method on a 96 well plate.
(§2) After juvenescence, suspension cultivation was prepared from the bacterial strains in the Todd-Hewitt broth. The suspension was introduced with a pipette to a 96 well plate, followed by the addition of the compound to be tested (3 parallel tests for each compound). […] Erythromycin was used as the control. Bacterial growth was monitored by measuring the absorbances of the samples at 620 nm at 0, 1, 2, 3, 4 and 24 hours. The sample plate was incubated at 37° C. in a shaker (250 rpm) between the measurements. Effects of the compounds on bacterial growth were evaluated by comparison of the growths of exposed and unexposed samples.

Staphylococcus aureus = test: as above; settings: for percent growth inhibition S. aureus 4 h / percent growth inhibition S. aureus 24 h: compound 1 mg/ml; for inhibition at 0.1 µg/mL / inhibition at 1 µg/mL / inhibition at 1000 µg/mL: Staphylococcus aureus
Method: as §1, §2

Micrococcus luteus = test: as above; settings: for percent growth inhibition M. luteus 4 h / percent growth inhibition M. luteus 24 h: compound 1 mg/ml; for inhibition at 0.1 µg/mL / inhibition at 1 µg/mL / inhibition at 1000 µg/mL: Micrococcus luteus
Method: as §1, §2

Bacillus subtilis = test: as above; settings: for percent growth inhibition B. subtilis 4 h / percent growth inhibition B. subtilis 24 h: compound 1 mg/ml; for inhibition at 0.1 µg/mL / inhibition at 1 µg/mL / inhibition at 1000 µg/mL: Bacillus subtilis
Method: as §1, §2

bacteria = test: antibacterial activity of compounds derived from betulin (summary statement); type: cell-based; settings: already at a concentration of 1 μg/ml
Source text: Erythromycin was used as the control.

[1] = 4 h, read-out: percent growth inhibition S. epidermidis 4 h
[2] = 24 h, read-out: percent growth inhibition S. epidermidis 24 h
[3] = 4 h, read-out: percent growth inhibition S. aureus 4 h
[4] = 24 h, read-out: percent growth inhibition S. aureus 24 h
[5] = 4 h, read-out: percent growth inhibition M. luteus 4 h
[6] = 24 h, read-out: percent growth inhibition M. luteus 24 h
[7] = 4 h, read-out: percent growth inhibition B. subtilis 4 h
[8] = 24 h, read-out: percent growth inhibition B. subtilis 24 h

Row | Molecule | percent growth inhibition S. epidermidis 4 h (S. epidermidis; 4 h) [%] | percent growth inhibition S. epidermidis 24 h (S. epidermidis; 24 h) [%] | percent growth inhibition S. aureus 4 h (Staphylococcus aureus; 4 h) [%] | percent growth inhibition S. aureus 24 h (Staphylococcus aureus; 24 h) [%] | percent growth inhibition M. luteus 4 h (Micrococcus luteus; 4 h) [%] | percent growth inhibition M. luteus 24 h (Micrococcus luteus; 24 h) [%] | percent growth inhibition B. subtilis 4 h (Bacillus subtilis; 4 h) [%] | percent growth inhibition B. subtilis 24 h (Bacillus subtilis; 24 h) [%] | further results
1 | 28-C18-alkenylsuccinic acid diester of betulin [Compound 21] | 0.0 | 0.0 | 0.0 | 0.0 | 0.0 | 10.1 | 0.0 | 6.9 | 
2 | 3,28-C18-dialkenylsuccinic acid diester of betulin [Compound 20] | 0.0 | 0.0 | 0.0 | 0.0 | 0.0 | 12.6 | 0.0 | 9.0 | 
3 | C=C(C)[C@@H]1CC[C@]2(C(=O)O)CC[C@]3(C)[C@H](CC[C@@H]4[C@@]5(C)CCC(=O)C(C)(C)[C@@H]5CC[C@]43C)[C@@H]12 [Compound 5, betulonic acid] | 52.7 | 0.0 | 51.6 | 0.0 | 91.3 | 0.0 | 102.3 | 0.0 | antibacterial activity (bacteria): considerable antibacterial activity
4 | CC[C@H]1OC(=O)[C@H](C)[C@@H](O[C@H]2C[C@@](C)(OC)[C@@H](O)[C@H](C)O2)[C@H](C)[C@@H](O[C@@H]2O[C@H](C)C[C@H](N(C)C)[C@H]2O)[C@](C)(O)C[C@@H](C)C(=O)[C@H](C)[C@@H](O)[C@]1(C)O [Compound 31, erythromycin, reference compound] |  |  |  |  |  |  |  |  | inhibition at 0.1 µg/mL (S. epidermidis; [1]): 100%; inhibition at 1 µg/mL (S. epidermidis; [1]): 100%; inhibition at 0.1 µg/mL (S. epidermidis; [2]): 90.8%; inhibition at 1 µg/mL (S. epidermidis; [2]): 100%; inhibition at 0.1 µg/mL (Staphylococcus aureus; [3]): 53.6%; inhibition at 1 µg/mL (Staphylococcus aureus; [3]): 79.8%; inhibition at 0.1 µg/mL (Staphylococcus aureus; [4]): 11.7%; inhibition at 1 µg/mL (Staphylococcus aureus; [4]): 72.1%; inhibition at 0.1 µg/mL (Micrococcus luteus; [5]): 96.1%; inhibition at 1 µg/mL (Micrococcus luteus; [5]): 100%; inhibition at 0.1 µg/mL (Micrococcus luteus; [6]): 100%; inhibition at 1 µg/mL (Micrococcus luteus; [6]): 100%; inhibition at 0.1 µg/mL (Bacillus subtilis; [7]): 95.6%; inhibition at 1 µg/mL (Bacillus subtilis; [7]): 100%; inhibition at 0.1 µg/mL (Bacillus subtilis; [8]): 100%; inhibition at 1 µg/mL (Bacillus subtilis; [8]): 100%
5 | 3,28-octanedioic acid ester of betulin [Compound 10] | 0.0 | 1.7 | 0.0 | 0.0 | 0.0 | 2.7 | 0.0 | 2.6 | 
6 | C=C(C)[C@@H]1CC[C@]2(COS(C)(=O)=O)CC[C@]3(C)[C@H](CC[C@@H]4[C@@]5(C)CC[C@H](OC(C)=O)C(C)(C)[C@@H]5CC[C@]43C)[C@@H]12 [Compound 25, betulin 3-acetate-28 mesylate] | 3.2 | 12.7 | 6.9 | 0.0 | 1.6 | 12.4 | 0.0 | 15.2 | 
7 | C=C(C)[C@@H]1CC[C@]2(COC(=O)COc3cc(C(C)C)ccc3C)CC[C@]3(C)[C@H](CC[C@@H]4[C@@]5(C)CC[C@H](O)C(C)(C)[C@@H]5CC[C@]43C)[C@@H]12 [Compound 23, 28-carvacrolacetic acid ester of betulin] | 6.8 | 0.0 | 9.9 | 11.1 | 0.0 | 0.1 | 0.7 | 7.3 | 
8 | 3,28-diisostearic acid ester of betulin [Compound 1] | 0.0 | 0.0 | 2.1 | 0.0 | 8.8 | 7.6 | 0.0 | 8.9 | 
9 | betulin 3,28-diacetate-18-19-diene [Compound 6] | 0.0 | 0.0 | 0.0 | 0.0 | 0.0 | 1.5 | 0.0 | 3.7 | 
10 | C=C(C)C1CCC2(COC(=O)C=Cc3ccccc3)CCC3(C)C(CCC4C5(C)CCC(O)C(C)(C)C5CCC43C)C12 (stereo not shown) [Compound 30, 28-cinnamic acid ester of betulin] | 8.5 | 0.0 | 13.0 | 0.0 | 0.0 | 0.0 | 5.9 | 11.1 | 
11 | C=C(C)[C@@H]1CC[C@]2(COC(=O)c3ccccc3NC(C)=O)CC[C@]3(C)C(CCC4[C@@]5(C)CC[C@H](O)C(C)(C)C5CC[C@]43C)C12 (stereo partly shown) [Compound 29, 28-N-acetylanthranilic acid ester of betulin] | 66.6 | 20.2 | 102.6 | 103.4 | 89.9 | 60.5 | 100.8 | 54.6 | antibacterial activity (bacteria): considerable antibacterial activity
12 | C=C(C)[C@@H]1CC[C@]2(C(=O)NC(CC(=O)OC)C(=O)OC)CC[C@]3(C)C(CCC4[C@@]5(C)CCC(=O)C(C)(C)C5CC[C@]43C)C12 (stereo partly shown) [Compound 8, 28-aspartate dimethylesteramide of betulonic acid] |  |  |  |  |  |  |  |  | inhibition at 1000 µg/mL (S. epidermidis; [1]): 0%; inhibition at 1000 µg/mL (S. epidermidis; [2]): 0%; inhibition at 1000 µg/mL (Staphylococcus aureus; [3]): 0%; inhibition at 1000 µg/mL (Staphylococcus aureus; [4]): 0%; inhibition at 1000 µg/mL (Micrococcus luteus; [5]): 0%; inhibition at 1000 µg/mL (Micrococcus luteus; [6]): 0%; inhibition at 1000 µg/mL (Bacillus subtilis; [7]): 0%; inhibition at 1000 µg/mL (Bacillus subtilis; [8]): 5.8%
